{"source": "patent US20210069295A1", "about": "“GALECTINS CONTROL MTOR IN RESPONSE TO ENDOMEMBRANE DAMAGE AND PROVIDE A MECHANISM AND TARGET FOR THE TREATMENT OF AUTOPHAGY-RELATED DISEASES” (STC. UNM, priority 2017, published 2021)", "key": {"[1]": {"tested_on": "TFEB", "assay": "TFEB nuclear translocation by high-content microscopy in HeLa cells", "type": "cell-based", "settings": "1 h full medium", "experimental": "(A) Dose-response analysis of mTOR activity in HEK293T cells treated with glycyl-L-phenylalanine 2-naphththylamide (GPN) in full medium for 1 h. mTOR activity was monitored by inununoblotting analysis of S6K1 (T389) and ULK1 (S757) phosphorylation (phosphorylated S6K (T389) and ULK1 (S757) relative to total S6K and ULK1, respectively). (B) Analysis of mTOR activity (as in A) after GPN washout. HEK293T cells were treated with 100 μM GPN for 1 h followed by 1 h washout in full medium. Data, means±SEM (n=3), **p<0.01, ANOVA. (C) Analysis of mTOR activity (as in A) in HEK293T cells treated with increasing doses of silica in full medium for 1 h. (D) HEK293T cells were treated with lysosomal damaging agents (LLOMe, Leu-Leu-OMe) for 1 h in full medium and status of acidified organelles assessed by quantifying LysoTracker Red DND-99 puncta using automated high-content imaging and analysis (HC). […] Data, means±SEM, n≥3 independent experiments (500 primary objects counted per well; ≥5 wells/sample per each experiment), **p<0.01, ANOVA. […] Human peripheral blood monocyte derived macrophages were treated with 100 μM GPN in full medium or starved in EBSS for 1 h, and mTOR activity measured as in A. None-treated cells were as control (Ctrl). […] Data, means±SEM, n≥3 independent experiments (500 primary objects counted per well; ≥5 wells/sample per each experiment) **p<0.01, ANOVA. […]"}, "[2]": {"tested_on": "mTOR", "assay": "mTOR activity by immunoblotting of S6K1 (T389) and ULK1 (S757) phosphorylation in HEK293T cells", "type": "cell-based", "settings": "HEK293T cells, full medium, 1 h", "experimental": "(§1) (A) Dose-response analysis of mTOR activity in HEK293T cells treated with glycyl-L-phenylalanine 2-naphththylamide (GPN) in full medium for 1 h. mTOR activity was monitored by inununoblotting analysis of S6K1 (T389) and ULK1 (S757) phosphorylation (phosphorylated S6K (T389) and ULK1 (S757) relative to total S6K and ULK1, respectively). (B) Analysis of mTOR activity (as in A) after GPN washout. HEK293T cells were treated with 100 μM GPN for 1 h followed by 1 h washout in full medium. Data, means±SEM (n=3), **p<0.01, ANOVA. (C) Analysis of mTOR activity (as in A) in HEK293T cells treated with increasing doses of silica in full medium for 1 h. (D) HEK293T cells were treated with lysosomal damaging agents (LLOMe, Leu-Leu-OMe) for 1 h in full medium and status of acidified organelles assessed by quantifying LysoTracker Red DND-99 puncta using automated high-content imaging and analysis (HC). None-treated cells were as control (Ctrl). White masks, algorithm defined cell boundaries (primary objects); yellow masks, computer-identified LysoTracker Red puncta (target objects). Data, means±SEM, n≥3 independent experiments (500 primary objects counted per well; ≥5 wells/sample per each experiment), **p<0.01, ANOVA. (E) Analysis of mTOR activity in primary human macrophages treated with GPN. Human peripheral blood monocyte derived macrophages were treated with 100 μM GPN in full medium or starved in EBSS for 1 h, and mTOR activity measured as in A. None-treated cells were as control (Ctrl). (F) Quantification by HC of overlaps between mTOR and LAMP2 (representative images shown in FIG. S1D) in HeLa cells treated with lysosomal damaging agents for 1 h in full medium. Data, means±SEM, n≥3 independent experiments (500 primary objects counted per well; ≥5 wells/sample per each experiment) **p<0.01, ANOVA. (G) Immunofluorescence confocal microscopy visualization of mTOR localization relative to LAMP2-positive lysosomes. […] (H) Analysis of TFEB nuclear translocation in HeLa cells treated with 100 μM GPN in full medium for 1 h, and the nuclear translocation of TFEB was measured by HC (Nuclei, Hoechst 33342, blue pseudocolor; TFEB red fluorescence, Alexa-568). […] White masks, computer algorithm-defined cell boundaries (primary objects); pink masks, computer-identified nuclear TFEB based on the average intensity of Alexa-568 fluorescence. Data, means±SEM, n≥3 independent experiments (500 primary objects counted per well; ≥5 wells/sample per each experiment), **p<0.01, ANOVA. (I) HeLa cells were treated as indicated in full medium for 1 h, and LC3 puncta were quantified by HC. […] Data, means±SEM, n≥3 independent experiments (500 primary objects counted per well; ≥5 wells/sample per each experiment), **p<0.01, ANOVA. […]"}, "[3]": {"tested_on": "mTOR", "assay": "mTOR localization relative to LAMP2-positive lysosomes (HC and confocal microscopy)", "type": "cell-based", "settings": "HeLa cells", "experimental": "as §1"}, "[4]": {"tested_on": "bone marrow-derived macrophages (BMMs)", "assay": "LysoTracker Red DND-99 staining in bone marrow-derived macrophages (BMMs)", "type": "cell-based, murine", "settings": "GPN 400 μM or LLOMe, 1 h"}}}
{"smiles": "COC(=O)[C@H](CC(C)C)NC(=O)[C@@H](N)CC(C)C", "note": "[LLOMe, Leu-Leu-OMe]", "values": [{"measurement": "TFEB nuclear translocation", "setting": "[1]", "value": "translocated to the nucleus from the cytoplasm"}, {"measurement": "mTOR activity (phosphorylation of its substrates S6K1 and ULK1)", "setting": "[2]", "value": "caused inhibition of mTOR activity"}, {"measurement": "mTOR localization after washout", "setting": "[3]; 2 mM LLOMe 1 h followed by 1 h washout", "value": "relocalization of mTOR to lysosomes"}, {"measurement": "mTOR localization (lysosomes vs cytosol, overlap with LAMP2)", "setting": "[3]; 1 h full medium", "value": "translocated from lysosomes to the cytosol"}, {"measurement": "LysoTracker Red DND-99 staining in BMMs (lysosomal damage)", "setting": "[4]", "value": "reduced LysoTracker Red DND-99 staining"}]}
